According to patent US20250250282A1, “NOVEL SEVEN-MEMBERED RING-FUSED COMPOUNDS” (PRISM Biolab Co., Ltd., priority 2022, published 2025):

System: CellSensor T-REx NICD CSL-bla HeLa cell line (Notch response element driving beta-lactamase reporter)
Experiment: Notch assay (CSL-bla beta-lactamase reporter, DOX-inducible NICD)
Format: cell-based
Details: Homo sapiens; 10 μM compound; HeLa/T-REx NICD CSL-bla cells, doxycycline-induced, 16-20 hours incubation; blue/green emission ratio
Description: We used the CellSensor T-REx™ NICD CSL-bla HeLa cell line, which was engineered by lentiviral transduction of HeLa cells with a Notch response element driving beta-lactamase reporter gene expression (CSL-bla) along with DOX (doxycycline)-inducible NICD (Notch intracellular domain) constructs. Addition of DOX to these cells allows for regulated NICD transcription factor expression and subsequent beta-lactamase expression.
Specifically, the following protocol was used.
• 1. Plate Cells: 32 μL/well of HeLa/T-REx™ NICD CSL-bla cells at 10^3 cells/well complete medium into 384-well plate. • 2. Prepare 10× compounds in assay medium. • 3. Add 4 μL compounds or 1% DMSO in assay medium to the cells. • 4. Add 4 μL 10× Doxycycline in Assay Medium to the treated wells, and 4 μL Assay Medium to the Untreated and cell free control wells. • 5. Incubate the assay plate in a humidified 37° C./5% CO2 incubator for 16-20 hours. • 6. Preparation of 6× LiveBLAzer™-FRET B/G Substrate (CCF4-AM) Mixture according to the manual and cell loading should be done in the absence of direct strong lighting. • 7. Remove assay plate from the humidified 37° C./5% CO2 incubator. Add 8 μl of 6× Substrate Mixture from […] to each well. Cover the plate to protect it from light and evaporation. Incubate at room temperature for 4 hours. • 8. Reading an Assay Plate using the following filter selections:
• 9. Data analysis: Use the assay plate layout to identify the location of the Cell-free wells. These control wells are used for background subtraction. Determine the average emission from the Cell-free wells at both 460 nm (Average Blue Background) and 530 nm (Average Green Background). Subtract the Average Blue Background (data collected at 460 nm) from all of the blue emission data. Subtract the Average Green background (data collected at 530 nm) from all of the green emission data. Calculate the Blue/Green Emission Ratio for each well, by dividing the background-subtracted blue emission values by the background-subtracted green emission values.

SMILES	inhibition at 10 µM [%]
O=C1[C@H](Cc2ccc(O)cc2)CN2C(=O)CCN(C(=O)NCCC(c3ccccc3)c3ccccc3)C2CN1CCc1ccccc1 (stereo partly drawn) [ID-11, (7R)—N-(3,3-diphenylpropyl)-7-(4-hydroxybenzyl)-4,8-dioxo-9-phenethyloctahydropyrimido[1,2-a][1,4]diazepine-1(2H)-carboxamide]	64.1
O=C1[C@H](Cc2ccc(O)cc2)CN2C(=O)CCN(C(=O)NCC3CCCCC3)C2CN1Cc1cccc2ccccc12 (stereo partly drawn) [ID-15, (7R)—N-(cyclohexylmethyl)-7-(4-hydroxybenzyl)-9-(naphthalen-1-ylmethyl)-4,8-dioxooctahydropyrimido[1,2-a][1,4]diazepine-1(2H)-carboxamide]	57.5
O=C1[C@H](Cc2ccccc2)CN2C(=O)CCN(C(=O)NCCC(c3ccccc3)c3ccccc3)C2CN1Cc1ccccc1 (stereo partly drawn) [ID-08, (7R)-7,9-dibenzyl-N-(3,3-diphenylpropyl)-4,8-dioxooctahydropyrimido[1,2-a][1,4]diazepine-1(2H)-carboxamide]	64.9
C[C@@H]1CN2C(=O)CCN(C(=O)NCc3cccc4ccccc34)C2CN(CC2CCCCC2)C1=O (stereo partly drawn) [ID-03, (7R)-9-(cyclohexylmethyl)-7-methyl-N-(naphthalen-1-ylmethyl)-4,8-dioxooctahydropyrimido[1,2-a][1,4]diazepine-1(2H)-carboxamide]	53.4
CC(C)COC(=O)N1c2ccsc2C(=O)N2C[C@@H](Cc3ccc(O)cc3)C(=O)N(Cc3cccc4ccccc34)CC21 (stereo partly drawn) [ID-38, isobutyl (8R)-8-(4-hydroxybenzyl)-6-(naphthalen-1-ylmethyl)-7,11-dioxo-4a,5,6,7,8,9-hexahydrothieno[3′,2′:4,5]pyrimido[1,2-a][1,4]diazepine-4(11H)-carboxylate]	52.4
CC(C)C[C@@H]1CN2C(=O)CCN(C(=O)NCCC(c3ccccc3)c3ccccc3)C2CN(CCc2ccccc2)C1=O (stereo partly drawn) [ID-10, (7R)—N-(3,3-diphenylpropyl)-7-isobutyl-4,8-dioxo-9-phenethyloctahydropyrimido[1,2-a][1,4]diazepine-1(2H)-carboxamide]	50.3
CCCCN1CC2N(C[C@@H](Cc3ccccc3)C1=O)C(=O)CCN2C(=O)NCCC(c1ccccc1)c1ccccc1 (stereo partly drawn) [ID-04, (7R)-7-benzyl-9-butyl-N-(3,3-diphenylpropyl)-4,8-dioxooctahydropyrimido[1,2-a][1,4]diazepine-1(2H)-carboxamide]	54.7
CC(C)CCN1CC2N(C[C@@H](Cc3ccc(O)cc3)C1=O)C(=O)c1sccc1N2C(=O)NCc1cccc2ccccc12 (stereo partly drawn) [ID-26, (8R)-8-(4-hydroxybenzyl)-6-isopentyl-N-(naphthalen-1-ylmethyl)-7,11-dioxo-4a,5,6,7,8,9-hexahydrothieno[3′,2′:4,5]pyrimido[1,2-a][1,4]diazepine-4(11H)-carboxamide]	61.1
